Data from patent US11285167B2, “Synergistic nutritional neuroprotective compositions for ameliorating neural dysfunction” (CELAGENEX RESEARCH (INDIA) PVT. LTD., priority 2019, dated 2022).

Experiments:
TNF alpha = TNF alpha level in global ischemia reperfusion induced brain injury (cerebral infarction) model; assay type: in vivo, Wistar rats; conditions: global ischemia (30 min)/72 h reperfusion, oral daily for 10 days, mean ± SEM, n = 6
Lactate dehydrogenase = Lactate dehydrogenase (LDH) level in Valproic acid-induced autism disorder; assay type: in vivo, Albino wistar rats; conditions: for LDH: VPA 400 mg/kg, oral daily for 26 days, mean ± SEM; for Levels of lactate dehydrogenase (in words): compared to Disease control or to Group-3 and Group-4
Experimental: The present study was to evaluate the effect of test substances on Valproic acid induced Autism spectrum disorder in wistar rats. The animals (50 animals) were divided into five groups each group consisting of 10 animals (5 animals per sex). Animals in Group-1 were treated with vehicle (0.5% CMC), Group-2 was treated with Valproic acid (VPA) 400 mg/kg via subcutaneous route, Group-3, Group-4 and Group-5 were treated with test substance Agmatine Sulphate (25.83 mg/kg), Nicotinamide Riboside chloride (6.46 mg/kg) and Agmatine Sulphate+Nicotinamide Riboside chloride (25.83 mg/kg+6.46 mg/kg) respectively, according to the body weight of animals. At the end of the experimental period, blood was collected from each group for biochemical analyses. On postnatal day 40 (PND 40), all the animals were exposed to the Morris water maze test and Open field test for specific time periods to determine the autism-like behaviors of the test substances.
The experiment was performed in 14-day old male and female off springs. The weight of the rat pups on the first day of the experiment was 20-40 grams. Sodium Valproate at dose of 400 mg/kg was freshly prepared and administered via subcutaneous route to the rat pups on postnatal day 14 (PND 14). All the animals were divided into five groups and each group contained the same amount of male and female offspring (5 males and 5 females, per group). Animals in Group-1 served as Normal control and were treated with 0.5% CMC, Group-2 served as Disease control and were treated with VPA (400 mg/kg) via intraperitoneally (i.p.), whereas Group-3 was treated with Test-1 Agmatine Sulphate (25.83 mg/kg), Group-4 was treated with Test-2 Nicotinamide Riboside chloride (6.46 mg/kg) and Group-5 was treated with Test-1+Test-2 Agmatine Sulphate+Nicotinamide Riboside chloride (25.83 mg/kg+6.46 mg/kg). The assigned test substances were administered once daily from PND 14 to PND 40. In addition, behaviors of experimental animals were determined via Morris water maze and open field test.
The test item formulations were administered once each day by oral route at the dose levels of 25.83 mg/kg (agmatine sulphate), 6.46 mg/kg (nicotinamide riboside chloride) and 25.83 mg/kg+6.46 mg/kg/day (agmatine sulphate+nicotinamide riboside chloride), to rats of corresponding groups for a minimum of 26 consecutive days at approximately same time each day (±1 hour). The dose volume administered to each rat was 10 ml/kg/day. Similarly, 0.5% CMC for Normal control and Disease control groups was administered orally at the same dose volume for a minimum of 26 consecutive days. The dose volume was calculated for individual animals on the first day of the treatment and was re-calculated according to the recent body weights recorded during the study. Daily individual dose volumes were recorded in the study records.
Lactate dehydrogenase (also called lactic acid dehydrogenase or LDH) is an enzyme found in almost all body tissues. It plays an important role in cellular respiration, the process by which glucose (sugar) from food is converted into usable energy for our cells.

[1] = tested on: Valproic acid-induced autism disorder in albino Wistar rats; assay: Open field test (hyperactivity) in Valproic acid-induced autism disorder; assay type: in vivo; conditions: for No. of squares visited for 6 mins: PND 40, VPA 400 mg/kg, oral daily PND 14 to PND 40, mean ± SEM; for Hyperactive behavior / locomotor activity, open field test (in words): PND 40, compared to Disease control or to Group-3 and Group-4
Experimental: The present study was to evaluate the effect of test substances on Valproic acid induced Autism spectrum disorder in wistar rats. The animals (50 animals) were divided into five groups each group consisting of 10 animals (5 animals per sex). Animals in Group-1 were treated with vehicle (0.5% CMC), Group-2 was treated with Valproic acid (VPA) 400 mg/kg via subcutaneous route, Group-3, Group-4 and Group-5 were treated with test substance Agmatine Sulphate (25.83 mg/kg), Nicotinamide Riboside chloride (6.46 mg/kg) and Agmatine Sulphate+Nicotinamide Riboside chloride (25.83 mg/kg+6.46 mg/kg) respectively, according to the body weight of animals. At the end of the experimental period, blood was collected from each group for biochemical analyses. On postnatal day 40 (PND 40), all the animals were exposed to the Morris water maze test and Open field test for specific time periods to determine the autism-like behaviors of the test substances. […] The experiment was performed in 14-day old male and female off springs. The weight of the rat pups on the first day of the experiment was 20-40 grams. Sodium Valproate at dose of 400 mg/kg was freshly prepared and administered via subcutaneous route to the rat pups on postnatal day 14 (PND 14). All the animals were divided into five groups and each group contained the same amount of male and female offspring (5 males and 5 females, per group). Animals in Group-1 served as Normal control and were treated with 0.5% CMC, Group-2 served as Disease control and were treated with VPA (400 mg/kg) via intraperitoneally (i.p.), whereas Group-3 was treated with Test-1 Agmatine Sulphate (25.83 mg/kg), Group-4 was treated with Test-2 Nicotinamide Riboside chloride (6.46 mg/kg) and Group-5 was treated with Test-1+Test-2 Agmatine Sulphate+Nicotinamide Riboside chloride (25.83 mg/kg+6.46 mg/kg). The assigned test substances were administered once daily from PND 14 to PND 40. In addition, behaviors of experimental animals were determined via Morris water maze and open field test. […] The dose volume administered to each rat was 10 ml/kg/day. Similarly, 0.5% CMC for Normal control and Disease control groups was administered orally at the same dose volume for a minimum of 26 consecutive days. The dose volume was calculated for individual animals on the first day of the treatment and was re-calculated according to the recent body weights recorded during the study. Daily individual dose volumes were recorded in the study records. All the animals were exposed to open field tests after the oral treatment with various tests, standard and control treatment in respective groups. The open field apparatus consisted of a wooden field of half square meter with a series of squares alternatively painted in black and white. […] Animals were treated with vehicle and the drug and were placed in the middle of the open field. Then the number of squares visited by the animals was counted for a 6 minute session. The number of entries by respective groups was recorded and used to determine the active time duration of animal post dosing. The determination of the hyperactivity of animals via this test was done on PND 40.

[2] = tested on: Major depression disorder in Wistar rats; assay: Open field test (ambulatory behavior) in Reserpine-induced major depression disorder; assay type: in vivo
[3] = tested on: Major depression disorder in Wistar rats; assay: Overall behavioral evaluation in major depression disorder study (forced swim and open field tests); assay type: in vivo; conditions: oral 7 consecutive days
[4] = tested on: Major depression disorder in Wistar rats; assay: Forced swim test in Reserpine-induced major depression disorder; assay type: in vivo; conditions: for Immobility / mobility in forced swim test (in words): compared to disease control or to individual test substances
[5] = forced swim test 5 min, Reserpine 1.0 mg/kg induced, oral daily 7 days, mean ± SEM, n = 6

Row | SMILES | TNF alpha Level (TNF alpha) [pg/mL] | LDH (Lactate dehydrogenase; Female) [U/L] | LDH (Lactate dehydrogenase; Male) [U/L] | Levels of lactate dehydrogenase (in words) (Lactate dehydrogenase) | No. of squares visited for 6 mins ([1]; Female) | No. of squares visited for 6 mins ([1]; Male) | Hyperactive behavior / locomotor activity, open field test (in words) [1] | No. of open arm entries (Open field test) ([2]; po) | Effect on major depression disorder (in words) [3] | Immobility / mobility in forced swim test (in words) [4] | Climbing [4, 5] | Immobility [4, 5] | No. of open arm entries (Open field test) ([2]; 6 minute session, Reserpine induced, oral daily 7 days, mean ± SEM, n = 6) | Total time spent in active swimming [4, 5] [s]
1 | N=C(N)NCCCCN.O=S(=O)(O)O [Agmatine sulphate] | 142.00 ± 1.53 | 272.20 ± 3.34 | 268.20 ± 2.56 | normalized levels of lactate dehydrogenase | 85.40 ± 1.03 | 86.20 ± 2.06 | significantly decreased hyperactive behavior | 36.00 ± 0.86 | positive effects on major depression disorder | mobility of the animals in the treatment groups increased | 16.50 ± 0.43 | 99.67 ± 0.67 |  | 
2 | NC(=O)c1ccc[n+]([C@@H]2O[C@H](CO)[C@@H](O)[C@H]2O)c1.[Cl-] [Nicotinamide Riboside chloride, nicotinamide riboside chloride] | 160.33 ± 4.79 | 275.80 ± 1.71 | 274.00 ± 3.11 | normalized levels of lactate dehydrogenase | 87.20 ± 0.97 | 88.40 ± 0.98 | significantly decreased hyperactive behavior |  | positive effects on major depression disorder | mobility of the animals in the treatment groups increased | 15.50 ± 0.62 | 105.50 ± 0.85 | 31.33 ± 0.71 | 185.33 ± 0.67
